Our source for the EC50 values is PubChem BioAssay AID2050 (NMMLSC, 2009).

Active and inactive are the calls of the source.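 The calls were made as follows: active = EC50 at or below 30 µM together with a response span of at least a set limit; inactive = the rest.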

The target in this assay is GTPase HRas (Homo sapiens) (UniProt P01112). Kind of assay: inhibition of fluorescent GTP binding to activated Ras – biochemical, pyrazoline analogs, multiplex bead flow cytometry, SAR follow-up (AID 2050). The note with it: GST-Ras beads, Bodipy-FL-GTP binding. For orientation: Flow cytometry measures light scatter and fluorescence of single cells or particles in a stream.
Sequence of GTPase HRas (Homo sapiens) (P01112 whole entry, looked up): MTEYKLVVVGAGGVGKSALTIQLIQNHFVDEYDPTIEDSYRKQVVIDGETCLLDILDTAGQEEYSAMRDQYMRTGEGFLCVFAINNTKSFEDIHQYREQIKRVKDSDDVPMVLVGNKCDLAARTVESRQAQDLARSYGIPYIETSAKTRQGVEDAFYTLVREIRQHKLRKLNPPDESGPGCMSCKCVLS
In general, EC50 refers to the concentration needed to bring the measured effect to its halfway point. On to `COc1ccc(C2CC(c3ccccc3)=NN2c2ccc(C(N)=O)cc2)cc1` (stereo unspecified), for which the EC50 is > 30 µM (inactive).
As for `COc1ccc(C2CC(c3ccc(Cl)cc3)=NN2c2ccccc2)cc1OC` (stereo unspecified), the figure is > 30 µM (inactive).
With `COc1ccc(C2CC(c3ccccc3C(F)(F)F)=NN2c2ccc(S(N)(=O)=O)cc2)cc1` (stereo unspecified), the EC50 was > 30 µM (inactive).
For `COc1ccc(C2CC(c3ccc(F)cc3)=NN2c2cccc(F)c2)cc1OC` (stereo unspecified), the EC50 is > 30 µM (inactive).
`NS(=O)(=O)c1ccc(N2N=C(c3ccccc3)CC2c2ccccc2)cc1` (stereo unspecified): the EC50 is > 30 µM (inactive).
As for `NS(=O)(=O)c1ccc(N2N=C(c3ccc(Br)cc3)CC2c2ccc(F)cc2)cc1` (stereo unspecified), the figure is > 30 µM (inactive); as for `Fc1ccccc1C1CC(c2ccc(Br)cc2)=NN1c1ccc(Br)cc1` (stereo unspecified), > 30 µM (inactive); as for `COc1ccc(C2=NN(c3ccccc3)C(c3ccc(OC)c(OC)c3C(=O)O)C2)cc1` (stereo unspecified), > 30 µM (inactive).
The same measure for `CN(C)c1ccc(C2CC(c3ccc(Br)cc3)=NN2c2ccccc2)cc1` (stereo unspecified): > 30 µM (inactive); for `O=S(=O)(c1ccc(N2N=C(c3ccccc3)CC2c2ccccc2)cc1)C(F)F` (stereo unspecified): > 30 µM (inactive); for `NS(=O)(=O)c1ccc(N2N=C(c3ccccc3)CC2c2ccccc2Br)cc1` (stereo unspecified): > 30 µM (inactive).
